These results are taken from US11040987B2 (TenNor Therapeutics Limited, priority 2019, dated 2021).

The test system of one assay is Pseudomonas aeruginosa. The settings on record: including carbapenem-resistant strains; cited from earlier work.
A further assay deals with Acinetobacter baumannii. The settings on record: including carbapenem-resistant strains; cited from earlier work.
For another assay, the system named is A.b TNP 41709. Description: MIC against A. baumannii clinical isolates, alone and in combination with antibiotics. Format: cell-based. The settings on record: Acinetobacter baumannii, TNP41709, read-out: MIC A.b TNP 41709.
For the next assay, the system named is A.b TNP 41704. Described as above. Format: cell-based. Conditions: Acinetobacter baumannii, TNP41704, read-out: MIC A.b TNP 41704.
Another assay has as its system A. baumannii ATCC 19606. Put plainly: MIC determination, broth microdilution, ESKAPE panel. Format: cell-based. The settings on record: Acinetobacter baumannii, ATCC19606, read-out: MIC A. baumannii ATCC 19606. The method, boiled down:
(§1)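 MIC read by broth microdilution following CLSI guidance, with minor changes. Each well received a bacterial inoculum of […].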

A further assay relates to S. aureus ATCC 29213. Described as above. Conditions: Staphylococcus aureus, ATCC29213, read-out: MIC S. aureus ATCC 29213. In kind it is cell-based. The method, boiled down: as §1
The test system of another assay is K. pneumoniae ATCC 43816. Described as above. In kind it is cell-based. Conditions: Klebsiella pneumoniae, ATCC43816, read-out: MIC K. pneumoniae ATCC 43816. The method, boiled down: as §1
The test system of another assay is P. aeruginosa ATCC 27853. The description is as above. Format: cell-based. The settings on record: Pseudomonas aeruginosa, ATCC27853, read-out: MIC P. aeruginosa ATCC 27853. The method in brief:
as §1

Another assay concerns E. faecium ATCC 700221. Described as above. Format: cell-based. Conditions: Enterococcus faecium, ATCC700221, read-out: MIC E. faecium ATCC 700221. The method in brief: as §1
Assay [1] has as its system Escherichia coli ATCC 25922. Described as above. Format: cell-based. Conditions: ATCC25922, read-out: MIC E. coli ATCC 25922. The method in brief: as §1
A further assay has as its system A.b TNP 41708. Description: MIC against A. baumannii clinical isolates, alone and in combination with antibiotics. In kind it is cell-based. Conditions: Acinetobacter baumannii, TNP41708, read-out: MIC A.b TNP 41708. The method, boiled down:
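Inoculum set at […]. MICs come from broth microdilution run according to CLSI, minor modifications applied.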

The target of a further assay is AmpC_AB (Acinetobacter baumannii, UniProt Q6DRA1). Description: β-lactamase inhibition, spectrophotometric assay of nitrocefin hydrolysis. Format: biochemical. The source says:
(§2) Hydrolytic inactivation of the β-lactam antibiotics by β-lactamases is the most widespread drug resistant mechanism and the most challenge clinically among Gram-negative bacterial pathogens. Based on the amino acid sequences, the β-lactamases are grouped into four classes (Ambler classification), of which A, C and D are serine hydrolases and B encompasses metallo-β-lactamases. The IC50 of selected derivatives disclosed herein (identified with reference to example number) plus six reference β-lactam or β-lactamase inhibitors were determined against 7 representative β-lactamases of various classes in a standard spectrophotometric assay of nitrocefin hydrolysis. The assay is performed in 384-well plate. The seven recombinant β-lactamases AmpC_AB (from A. baumannii), AmpC_PA (from P. aeruginosa), KPC-2, NDM-1, IMP-1, VIM-1 and OXA 24/40) are expressed and purified. The reaction buffer for class A, C and D enzymes is 100 mM Na2HPO4—KH2PO4 (pH 7.1) plus 0.005% Tween-20, and for class B enzymes 10 μM ZnSO4 is added. […] The 50 μL of reaction solution composed of 2 pM of β-lactamase, 200 μM of nitrocefin and series of 3-fold dilutions of test or control compounds are added by Cybio SELMA system into 384-plate and incubated in dark at 25° C. for 2 hours. The OD490 is read in MC SpectraMax Plus384 plate reader.

The target in the next assay is T1, VIM-1 (Pseudomonas aeruginosa, UniProt A0A0F7KYQ8).
T1 construct: made in house
The description is as above. Format: biochemical.
Source text: as §2

Another assay addresses T2, NDM-1 (Klebsiella pneumoniae, UniProt C7C422).
T2 construct: made in house
Described as above. Format: biochemical.
Source text: as §2

The target in a further assay is T3, IMP-1 (Serratia marcescens, UniProt P52699).
T3 construct: made in house
The description is as above. In kind it is biochemical.
Source text: as §2

For the next assay, the target named is T4, OXA 24/40 (Acinetobacter baumannii, UniProt Q8RLA6).
T4 construct: made in house
The assay is described as above. In kind it is biochemical.
Source text: as §2

The next assay deals with T5, KPC-2 (Klebsiella pneumoniae, UniProt Q9F663).
T5 construct: made in house
The description is as above. Format: biochemical.
Source text: as §2

The target of another assay is T6, AmpC_PA (Pseudomonas aeruginosa, UniProt P24735).
T6 construct: made in house
The assay is described as above. Format: biochemical, P. aeruginosa.
Source text: as §2

Each structure is given as a SMILES string. Converted amounts (≈) assume the structure as drawn.

T3 sequence (P52699 19-246, looked up, species assumed): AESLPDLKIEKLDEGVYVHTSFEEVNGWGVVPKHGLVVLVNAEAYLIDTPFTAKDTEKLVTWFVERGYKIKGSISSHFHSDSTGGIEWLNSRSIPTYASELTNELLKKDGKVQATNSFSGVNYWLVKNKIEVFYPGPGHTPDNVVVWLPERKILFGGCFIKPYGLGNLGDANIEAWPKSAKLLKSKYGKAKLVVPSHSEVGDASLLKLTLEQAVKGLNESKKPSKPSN
T6 sequence (P24735 27-397): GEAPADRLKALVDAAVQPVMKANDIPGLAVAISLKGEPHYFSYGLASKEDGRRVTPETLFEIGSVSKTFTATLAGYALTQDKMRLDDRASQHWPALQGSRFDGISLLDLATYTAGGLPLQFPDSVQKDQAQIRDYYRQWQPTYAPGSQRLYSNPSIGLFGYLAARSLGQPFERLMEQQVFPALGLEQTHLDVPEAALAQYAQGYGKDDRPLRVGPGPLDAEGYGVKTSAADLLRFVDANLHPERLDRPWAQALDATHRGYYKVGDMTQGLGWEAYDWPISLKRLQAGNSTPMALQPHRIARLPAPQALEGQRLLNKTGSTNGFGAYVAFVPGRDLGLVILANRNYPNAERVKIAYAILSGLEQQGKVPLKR
T4 sequence (Q8RLA6 22-275): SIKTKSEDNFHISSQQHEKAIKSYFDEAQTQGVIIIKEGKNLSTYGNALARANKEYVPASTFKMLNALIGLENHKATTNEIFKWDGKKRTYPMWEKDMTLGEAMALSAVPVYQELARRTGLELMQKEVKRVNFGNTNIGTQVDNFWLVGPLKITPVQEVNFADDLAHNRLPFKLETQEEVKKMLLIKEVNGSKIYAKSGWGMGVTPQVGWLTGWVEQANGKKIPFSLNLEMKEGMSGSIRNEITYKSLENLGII
T2 sequence (C7C422 29-270, looked up, species assumed): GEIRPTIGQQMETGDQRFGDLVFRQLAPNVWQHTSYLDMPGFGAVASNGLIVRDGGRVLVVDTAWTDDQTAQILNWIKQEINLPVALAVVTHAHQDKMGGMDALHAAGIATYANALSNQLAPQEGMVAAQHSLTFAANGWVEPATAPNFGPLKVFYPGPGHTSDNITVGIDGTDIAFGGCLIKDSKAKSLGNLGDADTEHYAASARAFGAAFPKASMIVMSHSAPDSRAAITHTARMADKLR
T5 sequence (Q9F663 25-293, looked up, species assumed): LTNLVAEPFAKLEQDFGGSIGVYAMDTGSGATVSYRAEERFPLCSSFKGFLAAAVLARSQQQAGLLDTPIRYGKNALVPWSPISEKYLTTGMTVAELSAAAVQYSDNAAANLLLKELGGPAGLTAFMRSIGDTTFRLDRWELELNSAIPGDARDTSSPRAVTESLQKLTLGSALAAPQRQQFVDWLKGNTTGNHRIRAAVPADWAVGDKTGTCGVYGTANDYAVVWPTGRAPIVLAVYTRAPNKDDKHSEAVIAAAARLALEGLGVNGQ

With `CC(C)(O/N=C(\C(=O)N[C@@H]1C(=O)N2C(C(=O)[O-])=C(C[N+]3(CCNC(=O)c4ccc(O)c(O)c4Cl)CCCC3)CS[C@H]12)c1csc(N)n1)C(=O)O` [Cefiderocol], in the assay on Pseudomonas aeruginosa, the “antibacterial activity against Pseudomonas aeruginosa” value was “potent antibacterial activity”. In addition, in the assay on Acinetobacter baumannii, the “antibacterial activity against Acinetobacter baumannii” value is reported as “potent antibacterial activity”.

For `CC1(C)[C@H](C(=O)O)N2C(=O)C[C@H]2S1(=O)=O` [Sulbactam, reference compound], the MIC in the assay with A.b TNP 41709 is 32 µg/mL; in the assay with A.b TNP 41704, 8 µg/mL; in the assay with A. baumannii ATCC 19606, 0.5 µg/mL (≈ 2.14 µM); in the assay on S. aureus ATCC 29213, greater than 128 µg/mL; in the assay with K. pneumoniae ATCC 43816, 64 µg/mL (≈ 274 µM); in the assay with P. aeruginosa ATCC 27853, greater than 128 µg/mL. Further, the results for the MIC (in the assay with E. faecium ATCC 700221; in assay [1]; in the assay on A.b TNP 41708) were greater than 128 µg/mL, 32 µg/mL (≈ 137 µM) and 32 µg/mL, respectively. Also, the IC50 is 10.3 µM on AmpC_AB; greater than 200 µM against VIM-1; greater than 200 µM at NDM-1; greater than 200 µM at IMP-1; greater than 200 µM against OXA 24/40; 53.4 µM on KPC-2. In addition, the IC50 on AmpC_PA is 10.3 µM.
